Where two headings read alike, the source gives them in different places.

One experiment has as its system HCV replicon. The experiment in a line: HCV replicon FRET assay. Particulars: Hepatitis C virus. It is filed as cell-based. The gist of the method: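 HCV replicon cells, with or without Renilla luciferase reporter, incubated with titrated compounds at 37 °C; Alamar blue read for cytotoxicity. NS3 protease activity read from lysates with 20 μM EDANS/DABCYL FRET peptide (340/490 nm, kinetic), or by Dual-Glo luciferase. Background from highest protease-inhibitor wells; EC50 = 50% signal reduction.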
(In general: In antiviral work, replicon cells carry a viral genome segment that copies itself.)

Another experiment deals with T1, HCV NS5B (Hepatitis C virus genotype 1b, UniProt Q9WMX2).
T1 construct: The protein was expressed with an 18 amino acid C-terminal truncation to enhance the solubility; made in house; host or cells: E. coli BL21 (DE3), pET21a
Description: HCV NS5B RdRp enzyme assay (preincubation protocol). It is filed as biochemical. In short, it runs like this:
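C-terminally truncated (Δ18) genotype 1b NS5B from E. coli, 14 nM, added to compound, then polyA template (0.2 nM), 3H-UTP (0.29 μM) and oligo-dT12 primer precaptured on streptavidin SPA beads. 4 h at 30 °C, pH 7.5, 2% DMSO; SPA readout; IC50 from seven concentrations by logistic fit.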

Setting [1] is: Table 1, FRET assay, read-out: EC50*.
Setting [2] is: Table 1a, FRET assay, read-out: EC50*.
Setting [3] is: Table 1b, FRET assay, read-out: EC50*.

T1 sequence (Q9WMX2 2420-2992): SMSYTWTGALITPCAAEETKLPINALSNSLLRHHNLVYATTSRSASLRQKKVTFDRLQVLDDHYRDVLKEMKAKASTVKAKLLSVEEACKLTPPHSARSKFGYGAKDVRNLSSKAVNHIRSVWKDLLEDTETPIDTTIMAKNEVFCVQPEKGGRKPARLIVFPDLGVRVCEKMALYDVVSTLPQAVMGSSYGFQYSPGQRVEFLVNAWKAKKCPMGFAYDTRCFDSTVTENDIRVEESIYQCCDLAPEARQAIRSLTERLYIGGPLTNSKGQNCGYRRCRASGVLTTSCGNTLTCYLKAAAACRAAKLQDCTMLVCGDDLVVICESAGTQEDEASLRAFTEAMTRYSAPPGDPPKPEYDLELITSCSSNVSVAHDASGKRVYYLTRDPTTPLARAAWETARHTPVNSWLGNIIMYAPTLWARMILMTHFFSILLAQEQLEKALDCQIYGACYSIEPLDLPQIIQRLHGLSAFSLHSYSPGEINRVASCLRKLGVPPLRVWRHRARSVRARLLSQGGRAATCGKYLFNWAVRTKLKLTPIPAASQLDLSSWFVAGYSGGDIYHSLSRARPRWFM

What is called EC50 is the midpoint of the concentration-response curve. For orientation: IC50 means the concentration needed to halve the response being measured. Turning to `COC(=O)c1ccc2c(C3CCCCC3)c3n(c2c1)CC(C(=O)N1CC[C@H](F)C1)=Cc1ccccc1-3`, the EC50 with HCV replicon (setting [1]) is greater than 370 nM. In addition, at HCV NS5B (Table 1, read-out: IC50*), the IC50 was greater than 1000 nM.
For `C[C@@H]1CN(C(=O)C2=Cc3ccccc3-c3c(C4CCCCC4)c4ccc(C(=O)NCCN5CCOCC5)cc4n3C2)C[C@H](C)O1` the same measures were 1000 to 10000 nM and 10 to 1000 nM.
Turning to `COc1ccc2c(c1)C=C(C(=O)N1CCN(C(=O)C3CC3)CC1)Cn1c-2c(C2CCCCC2)c2ccc(C(=O)NS(=O)(=O)N(C)C)cc21`, the EC50 with HCV replicon (setting [2]) lay in the range of 30 to 1000 nM. The 50% inhibitory concentration (IC50) at HCV NS5B (Table 1a, read-out: IC50*) lay in the range of 10 to 1000 nM.
As to `COc1ccc2c(c1)CC(NC(=O)N1C[C@@H](C)N(C)[C@@H](C)C1)Cn1c-2c(C2CCCCC2)c2ccc(C(=O)NS(=O)(=O)N(C)C)cc21` (stereo partly shown), in the experiment on HCV replicon (setting [3]), the EC50 fell in the range of 30 to 1000 nM. The IC50 on HCV NS5B (Table 1b, read-out: IC50*) was 20 to 1000 nM.
As for `COC(=O)c1ccc2c(C3CCCCC3)c3n(c2c1)CC(C(=O)N(C)CC1CCCN(C)C1)=Cc1ccccc1-3` (stereo not shown), the EC50 in the experiment on HCV replicon (setting [1]) lay within 1000 to 10000 nM. The 50% inhibitory concentration (IC50) on HCV NS5B (Table 1, read-out: IC50*) fell in the range of 10 to 1000 nM.
Taken in the same sequence, the figures for `O=C(O)c1ccc2c(C3CCCCC3)c3n(c2c1)CC(C(=O)N1CCN(C(=O)N2CCOCC2)CC1)=Cc1ccccc1-3` were 70 to 1000 nM and 10 to 1000 nM.
`COc1ccc2c(c1)CC(NC(=O)N1CC(OC)C1)Cn1c-2c(C2CCCCC2)c2ccc(C(=O)NS(=O)(=O)N(C)C)cc21` (stereo not shown): the concentration giving a half-maximal response (EC50) in the experiment with HCV replicon (setting [3]) was in the range of 30 to 1000 nM. For the same compound, the half-inhibitory concentration (IC50) at HCV NS5B (Table 1b, read-out: IC50*) lay in the range of 20 to 1000 nM.
With `COC(=O)c1ccc2c(C3CCCCC3)c3n(c2c1)CC(C(=O)N1CCC(N2CCCC(F)(F)C2)CC1)=Cc1ccccc1-3`, the 50% effective concentration (EC50) in the experiment on HCV replicon (setting [1]) was greater than 370 nM. The IC50 at HCV NS5B (Table 1, read-out: IC50*) is greater than 1000 nM.
Turning to `COc1ccc2c(c1)CC(NC(=O)N1CCOC(CN(C)C)C1)Cn1c-2c(C2CCCCC2)c2ccc(C(=O)NS(=O)(=O)N(C)C)cc21` (stereo not shown), the EC50 in the experiment on HCV replicon (setting [2]) fell in the range of 30 to 1000 nM. In addition, on HCV NS5B (Table 1a, read-out: IC50*), the IC50 lay in the range of 10 to 1000 nM.
With `C[C@@H]1CN(C(=O)C2=Cc3ccccc3-c3c(C4CCCCC4)c4ccc(C(=O)NS(=O)(=O)N5CCN(C)CC5)cc4n3C2)C[C@H](C)O1`, the half-maximal effective concentration (EC50) in the experiment on HCV replicon (setting [1]) was in the range of 70 to 1000 nM. Also, the IC50 at HCV NS5B (Table 1, read-out: IC50*) lay in the range of 10 to 1000 nM.
For `CN1CCN(S(=O)(=O)NC(=O)c2ccc3c(C4CCCCC4)c4n(c3c2)CC(C(=O)N2CCOCC2)=Cc2ccccc2-4)CC1` the same measures were 70 to 1000 nM and 10 to 1000 nM.
For `COc1ccc2c(c1)C=C(C(=O)N1CCN(CCO)CC1)Cn1c-2c(C2CCCCC2)c2ccc(C(=O)NS(=O)(=O)N(C)C)cc21`, the half-maximal effective concentration (EC50) with HCV replicon (setting [3]) is 30 to 1000 nM. Also, the IC50 on HCV NS5B (Table 1b, read-out: IC50*) was in the range of 20 to 1000 nM.
For `COC(=O)c1ccc2c(C3CCCCC3)c3n(c2c1)CC(C(=O)N(C)NC(C)=O)=Cc1ccccc1-3`, in the experiment with HCV replicon (setting [1]), the 50% effective concentration (EC50) is 1000 to 10000 nM. Besides, the half-inhibitory concentration (IC50) at HCV NS5B (Table 1, read-out: IC50*) was greater than 1000 nM.
As for `COC(=O)c1ccc2c(C3CCCCC3)c3n(c2c1)CC(C(=O)N1CCC(N2CCCCC2=O)CC1)Cc1ccccc1-3` (stereo not shown), the concentration giving a half-maximal response (EC50) with HCV replicon (setting [1]) is 70 to 1000 nM. Further, the concentration for half-maximal inhibition (IC50) on HCV NS5B (Table 1, read-out: IC50*) is greater than 1000 nM.
Take `COC[C@@H]1CN(C(=O)C2=Cc3cc(OC)ccc3-c3c(C4CCCCC4)c4ccc(C(=O)NS(=O)(=O)N(C)C)cc4n3C2)CCO1`: the EC50 in the experiment on HCV replicon (setting [3]) lay within 30 to 1000 nM. Also, on HCV NS5B (Table 1b, read-out: IC50*), the IC50 is 20 to 1000 nM.
In the experiment with HCV replicon, `O=C(O)c1ccc2c(C3CCCCC3)c3n(c2c1)CC(C(=O)N1CCC(N2C(=O)Cc4ccccc42)CC1)=Cc1ccccc1-3` registered an EC50 of 70 to 1000 nM. Further, the IC50 on HCV NS5B (Table 1, read-out: IC50*) was in the range of 10 to 1000 nM.
`COc1ccc2c(c1)C=C(C(=O)N1C[C@@H](C)N(CC3CC3)[C@@H](C)C1)Cn1c-2c(C2CCCCC2)c2ccc(C(=O)NS(=O)(=O)N(C)C)cc21`: in the experiment on HCV replicon (setting [3]), the 50% effective concentration (EC50) lay in the range of 30 to 1000 nM. In addition, the IC50 at HCV NS5B (Table 1b, read-out: IC50*) is 20 to 1000 nM.
For `COc1ccc2c(c1)CC(NC(=O)N(C)CC(N)=O)Cn1c-2c(C2CCCCC2)c2ccc(C(=O)NS(=O)(=O)N(C)C)cc21` (stereo not shown) the same measures were 30 to 1000 nM and 20 to 1000 nM.
`CN(C)S(=O)(=O)NC(=O)c1ccc2c(C3CCCCC3)c3n(c2c1)CC(C(=O)N1CCC(N2CCOCC2)CC1)=Cc1ccccc1-3`: the EC50 in the experiment with HCV replicon (setting [1]) lay within 70 to 1000 nM. For the same compound, the IC50 on HCV NS5B (Table 1, read-out: IC50*) lay within 10 to 1000 nM.
Regarding `COC(=O)CCC(=O)CNC(=O)C1=Cc2cc(OC)ccc2-c2c(C3CCCCC3)c3ccc(C(=O)OC)cc3n2C1`, in the experiment on HCV replicon (setting [2]), the EC50 fell in the range of 30 to 1000 nM. Besides, the IC50 on HCV NS5B (Table 1a, read-out: IC50*) is 10 to 1000 nM.
Taken in the same sequence, the figures for `COc1ccc2c(c1)CC(NC(=O)N1C[C@@H](C)O[C@@H](C)C1)Cn1c-2c(C2CCCCC2)c2ccc(C(=O)NS(=O)(=O)N(C)C)cc21` (stereo partly shown) were 30 to 1000 nM and 10 to 1000 nM.
Taken in the same sequence, the figures for `COC(=O)c1ccc2c(C3CCCCC3)c3n(c2c1)CC(NC(=O)N1C[C@@H](C)O[C@@H](C)C1)Cc1cc(OC)ccc1-3` (stereo partly shown) were 30 to 1000 nM and 10 to 1000 nM.
For `COc1ccc2c(c1)CC(C(=O)N(C)C1CCOCC1)Cn1c-2c(C2CCCCC2)c2ccc(C(=O)NS(=O)(=O)N(C)C)cc21` (stereo not shown) the same measures were 30 to 1000 nM and 10 to 1000 nM.

The record behind these values is US7473688B2, “Indolobenzazepine HCV NS5B inhibitors” (Bristol-Myers Squibb Company, priority 2005, dated 2009).
